The values that follow are results of earlier work, collected in the CATMoS acute toxicity set (Mansouri et al. 2021).

Each structure is given as a SMILES string. Where “and” joins values, the source holds several entries; their conditions need not be identical. Equal values may be shown once.

A short description of this series: rat acute oral toxicity. The conditions noted are these: in vivo.
What is called LD50 is the dose at which mortality reaches 50%. Consider `Cc1cc(S(=O)(=O)c2ccccc2)ccc1NS(=O)(=O)C(F)(F)F`, for which the LD50 is 633 mg/kg.
`CC/C(=C(/CC)c1ccc(OP(=O)(O)O)cc1)c1ccc(OP(=O)(O)O)cc1`: the 50% lethal dose (LD50) is 3000 mg/kg.
Consider `O=S(=O)(O)c1ccccc1C=Cc1ccc(-c2ccc(C=Cc3ccccc3S(=O)(=O)O)cc2)cc1`, for which the LD50 is 5580 mg/kg.
For `CCCCC(O)c1ccccc1` (centres undefined), the 50% lethal dose (LD50) is 5430 mg/kg.
Take `CC1=C(C(=O)OCCN2CCN(C(c3ccccc3)c3ccccc3)CC2)C(c2cccc([N+](=O)[O-])c2)C(P2(=O)OCC(C)(C)CO2)=C(C)N1` (centres undefined): the LD50 is 194 mg/kg.
Take `N#CCCNCCC#N`: the 50% lethal dose (LD50) is 2700 mg/kg.
Regarding `CCC(C)c1ccc(OC(=O)NC)cc1` (centres undefined), the LD50 was 44 mg/kg.
Take `CN(C)[C@@H]1C(O)=C(C(N)=O)C(=O)[C@@]2(O)C(O)=C3C(=O)c4c(O)cccc4[C@@](C)(O)[C@H]3[C@H](O)[C@@H]12`: the median lethal dose (LD50) was 4800 mg/kg.
As for `FC(F)(F)c1nc2c(Br)ccc(Br)c2[nH]1`, the median lethal dose (LD50) was 18 mg/kg.
For `Cc1nc(N)nc(N2N=CCC2C)n1` (centres undefined), the LD50 is 3200 mg/kg.
With `C[C@@H]1C[C@H]2[C@@H]3CCC4=CC(=O)C=C[C@]4(C)[C@@]3(F)[C@@H](O)C[C@]2(C)[C@@]1(O)C(=O)COC(=O)c1ccncc1`, the median lethal dose (LD50) was 3560 mg/kg.
On to `N#CC(CCN1CCC(C(=O)O)(c2ccccc2)CC1)(c1ccccc1)c1ccccc1`, for which the 50% lethal dose (LD50) is 149 mg/kg.
As to `Cc1ncc2c(c1O)CSSC2`, the LD50 is 1110 mg/kg.
For the compound `O=[N+]([O-])c1cc(C(F)(F)F)ccc1Cl`, the LD50 is 1080 mg/kg.
Consider `CCOC(C1=NCC(OC)CN1)c1ccccc1` (centres undefined), for which the LD50 is 875 mg/kg.
On to `O=C1c2ccccc2C(=O)c2c1cccc2S(=O)(=O)O`, for which the median lethal dose (LD50) is 20000 mg/kg.
In the case of `O=[N+]([O-])c1ccc(Cl)c2nc(C(F)(F)F)[nH]c12`, the median lethal dose (LD50) was 11.1 mg/kg.
As for `N#CC1(O)CCCCC1`, the median lethal dose (LD50) is 10 mg/kg.
For the compound `CCCCNP(=S)(OCC)Sc1ccccc1` (centres undefined), the LD50 was 300 mg/kg.
On to `O=C1CN=C(c2ccccn2)c2cc(Br)ccc2N1`, for which the LD50 was 1950 mg/kg.
Consider `ClC1=C(Cl)[C@]2(Cl)[C@@H]3C[C@@H](Cl)[C@@H](Cl)[C@@H]3[C@@]1(Cl)C2(Cl)Cl` (racemic), for which the LD50 is 500 mg/kg.
With `CN1CCC(=C2c3ccccc3C=Cc3ccccc32)CC1`, the LD50 is 295 mg/kg.
Regarding `O=C1C(=NNc2cc([N+](=O)[O-])ccc2O)C(S(=O)(=O)O)=Cc2cc(S(=O)(=O)O)cc(Nc3nc(Cl)nc(Cl)n3)c21`, the LD50 was 9120 mg/kg.
With `C=CCNC(=S)Nc1ccccc1`, the LD50 is 750 mg/kg.
In the case of `CC(=O)CC(c1ccc([N+](=O)[O-])cc1)c1c(O)c2ccccc2oc1=O` (centres undefined), the LD50 is 513 mg/kg.
As for `C[Si](C)(C)OP(=O)(O[Si](C)(C)C)O[Si](C)(C)C`, the median lethal dose (LD50) was 3440 mg/kg.
Regarding `Cc1ccnc(N)c1`, the median lethal dose (LD50) was 200 mg/kg.
Turning to `N#CCc1ccccc1`, the LD50 is 270 mg/kg.
For the compound `CCCCCCCCOC(C)=O`, the median lethal dose (LD50) is 3000 mg/kg.
On to `COc1c2occc2cc2ccc(=O)oc12`, for which the LD50 was 791 mg/kg.
For the compound `COP(=O)(OC)OC(Cl)C(Cl)(Br)Br` (centres undefined), the LD50 is 49 mg/kg.
Take `C=CCC1=C(C)[C@H](OC(=O)[C@H]2[C@H](C=C(C)C)C2(C)C)CC1=O` (relative stereo): the 50% lethal dose (LD50) was 1320 mg/kg.
As to `COP(=O)(OC)OC(c1ccc(Cl)cc1)P(=O)(OC)OC` (centres undefined), the LD50 is 3200 mg/kg.
For `O[C@H]([C@H](O)[C@@H]1CO1)[C@H]1CO1` (racemic), the LD50 was 14 mg/kg.
In the case of `COP(=O)(Oc1cc(Cl)c(Br)cc1Cl)c1ccccc1` (centres undefined), the 50% lethal dose (LD50) is 118 mg/kg.
As to `C=CCOC(=O)/C=C\C(=O)OCC=C`, the LD50 is 300 mg/kg.
For `CC(=O)OC1=C(c2c(C)cc(C)cc2C)C(=O)c2ccccc21`, the 50% lethal dose (LD50) was 8000 mg/kg.
Consider `CCOC(=O)C1=CNC2CCCC(C)N2C1=O` (centres undefined), for which the median lethal dose (LD50) was 2500 mg/kg.
With `O=C(O)CCSCCC(=O)O`, the 50% lethal dose (LD50) was 3000 mg/kg.
Regarding `CN(C)N=Nc1ccc(Br)cc1`, the LD50 is 423 mg/kg.
Turning to `CCc1c(C)nc2ccc(Cl)cn2c1=O`, the LD50 is 1100 mg/kg.
Regarding `CCc1cccc(CC)c1N(CC(=O)O)C(=O)CCl`, the LD50 is 2300 mg/kg.
On to `Cc1ncc(CO)c(C=O)c1O`, for which the LD50 is 2150 mg/kg.
Turning to `CN(C)c1ccc(C(O)(c2ccc(N(C)C)cc2)c2ccc(N(C)C)cc2)cc1`, the LD50 was 770 mg/kg.
Consider `COP(=S)(OC)SCCSC(C)C`, for which the LD50 is 150 mg/kg.
As for `O=S(=O)(O)CCS`, the LD50 was 4440 mg/kg.
Consider `CC[C@@]1(O)C[C@H](O[C@H]2C[C@H](N(C)C)[C@H](O[C@H]3C[C@H](O)[C@H](O[C@H]4CCC(=O)[C@H](C)O4)[C@H](C)O3)[C@H](C)O2)c2c(cc3c(c2O)C(=O)c2c(O)cccc2C3=O)[C@H]1C(=O)OC`, for which the LD50 is 58.6 mg/kg.
Turning to `CCc1c(C)nc2ccccn2c1=O`, the LD50 was 1000 mg/kg.
`ClC1=C(Cl)[C@]2(Cl)[C@H]3[C@H]([C@@H]4O[C@]4(Cl)[C@@H]3Cl)[C@@]1(Cl)C2(Cl)Cl` (racemic): the LD50 was 457 mg/kg.
`CC(Cl)C(Cl)Cl` (centres undefined): the LD50 was 1230 mg/kg.
As for `Cc1ccc(S(=O)(=O)N(C)N=O)cc1`, the LD50 is 2700 mg/kg.
Take `NCCCC[C@H](N)C(=O)O`: the LD50 was 11400 mg/kg and 10000 mg/kg.
As for `CCC(C)C1(CC)C(O)=NC(=O)N=C1O` (centres undefined), the LD50 was 78 mg/kg.
With `CCN(CC(=O)O)S(=O)(=O)C(F)(F)C(F)(F)C(F)(F)C(F)(F)C(F)(F)C(F)(F)C(F)(F)C(F)(F)F`, the LD50 was 619 mg/kg.
For `Nc1ccc(O)c(N)c1`, the LD50 was 240 mg/kg.
On to `CCOP(=S)(OCC)SCC`, for which the 50% lethal dose (LD50) is 80 mg/kg.
Regarding `C=CCOc1ccc(C2=C(c3ccccc3)C(C)(C)Oc3cc(OC)ccc32)cc1`, the median lethal dose (LD50) is 500 mg/kg.
Take `CN(C)CCCC(CCc1ccc2c(c1)OCO2)CCc1ccc2c(c1)OCO2`: the 50% lethal dose (LD50) is 1230 mg/kg.
Consider `CCOC(O)C(Cl)(Cl)Cl` (centres undefined), for which the LD50 was 880 mg/kg.
